Consider six molecules from US20260001928A1 (CORTERIA PHARMACEUTICALS, priority 2022, published 2026).

This experiment relates to human LAD2 cells. In kind it is cell-based. On the procedure:
LAD2 cells (20000 cells/well, 96-well plates and 10,000 cells/well in 384-well plates) were incubated with compounds for 30 min. The R-hexosaminidase released into the supernatants and in cell lysates was quantified using the fluorogenic substrate 4-methylumbelliferyl-N-acetyl-b-D-glucosaminide.
On the day of the assay, the lyophilized peptides were dissolved in DMSO and/or PBS 1× pH 7.4, to obtain stock solutions. The stock solutions were used to prepare working serial dilutions to have final concentrations in assay ranging from 50, 100 or 300 to 0.1 or 0.001 μM. Each peptide was tested in biological duplicates. When compounds were dissolved in DMSO, the final solvent concentration in assay was 0.5% (v/v).
The percentage of degranulation, expressed as % of R-hexosaminidase release, was calculated by dividing the fluorescence signal of the supernatant by the sum of the signals from the supernatant and cell pellet (lysed with Triton X-100, final 1%) and multiplying by 100.
Dose-response curves were generated by plotting the % of R-hexosaminidase release versus total release of cells treated with triton (y-axis) against the concentrations of peptides tested (x-axis). The Mast Cell Degranulation (MCD) EC50 values and standard errors were calculated using XLfit 5.5.0.5 based on the following equation:
4 Parameter Sigmoidal Model: f=(A+((B−A)/(1+((C/x)^D))))
where A=Emin, B=Emax, C=EC50 and D=slope

Each structure is given as a SMILES string. *1 amine or outer side, *2 acyl side, *3 side chain or, on linkers, in order; H or OH if unused. Where a SMILES comes first, the peptide text is derived from it. Side-chain parts run from the residue outwards. [ ]: non-standard residue; d: D form. The star is where a group is joined. C16 diacid = O=C(O)CCCCCCCCCCCCCCC(=O)*; γGlu = O=C(O)[C@H](CCC(=O)[*:2])N[*:1]; Aib = CC(C)(N)C(=O)O

Take `CC[C@H](C)[C@H](NC(C)=O)C(=O)N[C@H](C(=O)N[C@@H](CC(C)C)C(=O)N[C@@H](CO)C(=O)N[C@@H](CC(C)C)C(=O)N[C@@H](CC(=O)O)C(=O)N[C@@H](C(=O)N1CCC[C@H]1C(=O)N[C@H](C(=O)N[C@@H](CCCCN)C(=O)N[C@@H](CC(C)C)C(=O)N[C@@H](CCCCNC(=O)CC[C@H](NC(=O)CCCCCCCCCCCCCCC(=O)O)C(=O)O)C(=O)N[C@@H](CCCCN)C(=O)N[C@H](C(=O)N[C@@H](CC(C)C)C(=O)N[C@@H](CC(C)C)C(=O)N[C@@H](CCC(=O)O)C(=O)N[C@@H](CCC(N)=O)C(=O)N[C@@H](CCC(=O)O)C(=O)N[C@@H](CCCCN)C(=O)N[C@@H](CCC(N)=O)C(=O)N[C@@H](CCCCN)C(=O)N[C@@H](C)C(=O)N[C@@H](CCC(N)=O)C(=O)N[C@@H](CCCNC(=N)N)C(=O)N[C@@H](CCC(=O)O)C(=O)N[C@@H](CCC(N)=O)C(=O)N[C@@H](C)C(=O)N[C@@H](CCC(=O)O)C(=O)N[C@H](C(=O)N[C@@H](CC(N)=O)C(=O)NC(C)(C)C(=O)N[C@@H](CCC(N)=O)C(=O)N[C@H](C(=O)N[C@@H](CC(C)C)C(=O)N[C@@H](C)C(=O)N[C@@H](CCC(N)=O)C(=O)N[C@H](C(N)=O)C(C)C)[C@@H](C)CC)[C@@H](C)O)[C@@H](C)CC)[C@@H](C)CC)C(C)C)C(C)C` [Cmpd 161] (Ac-IVLSLD[dV]PIKLK([γGlu-C16 diacid])KILLEQEKQKAQREQAETN[Aib]QILAQV-NH2): the EC50 was greater than 50 µM.

As to `CC[C@H](C)[C@H](NC(C)=O)C(=O)N[C@H](C(=O)N[C@@H](CC(C)C)C(=O)N[C@@H](CO)C(=O)N[C@@H](CC(C)C)C(=O)N[C@@H](CC(=O)O)C(=O)N[C@@H](C(=O)N1CCC[C@H]1C(=O)N[C@H](C(=O)N[C@@H](CCCCN)C(=O)N[C@@H](CC(C)C)C(=O)N[C@@H](CCCCNC(=O)CC[C@H](NC(=O)CCCCCCCCCCCCCCC(=O)O)C(=O)O)C(=O)N[C@@H](CCCCN)C(=O)N[C@H](C(=O)N[C@@H](CC(C)C)C(=O)N[C@@H](CC(C)C)C(=O)N[C@@H](CCC(=O)O)C(=O)N[C@@H](CCC(N)=O)C(=O)N[C@@H](CCC(=O)O)C(=O)N[C@@H](CCCCN)C(=O)N[C@@H](CCC(N)=O)C(=O)N[C@@H](CCCCN)C(=O)NC(C)(C)C(=O)N[C@@H](CCC(N)=O)C(=O)N[C@@H](CCCNC(=N)N)C(=O)N[C@@H](CCC(=O)O)C(=O)N[C@@H](CCC(N)=O)C(=O)N[C@@H](C)C(=O)N[C@@H](CCC(=O)O)C(=O)N[C@H](C(=O)N[C@@H](CC(N)=O)C(=O)NC(C)(C)C(=O)N[C@@H](CCC(N)=O)C(=O)N[C@H](C(=O)N[C@@H](CC(C)C)C(=O)N[C@@H](C)C(=O)N[C@@H](CCC(N)=O)C(=O)N[C@H](C(N)=O)C(C)C)[C@@H](C)CC)[C@@H](C)O)[C@@H](C)CC)[C@@H](C)CC)C(C)C)C(C)C` [Cmpd 162] (Ac-IVLSLD[dV]PIKLK([γGlu-C16 diacid])KILLEQEKQK[Aib]QREQAETN[Aib]QILAQV-NH2), the EC50 was greater than 50 µM.

With `CC[C@H](C)[C@H](NC(C)=O)C(=O)N[C@H](C(=O)N[C@@H](CC(C)C)C(=O)N[C@@H](CO)C(=O)N[C@@H](CC(C)C)C(=O)N[C@@H](CC(=O)O)C(=O)N[C@@H](C(=O)N1CCC[C@H]1C(=O)N[C@H](C(=O)N[C@@H](C)C(=O)N[C@@H](CC(C)C)C(=O)N[C@@H](CCCCNC(=O)CC[C@H](NC(=O)CCCCCCCCCCCCCCC(=O)O)C(=O)O)C(=O)N[C@@H](CCCCN)C(=O)N[C@H](C(=O)N[C@@H](CC(C)C)C(=O)N[C@@H](CC(C)C)C(=O)N[C@@H](CCC(=O)O)C(=O)N[C@@H](CCC(N)=O)C(=O)N[C@@H](CCC(=O)O)C(=O)N[C@@H](CCCCN)C(=O)N[C@@H](CCC(N)=O)C(=O)N[C@@H](CCCCN)C(=O)N[C@@H](CCCCN)C(=O)N[C@@H](CCC(N)=O)C(=O)N[C@@H](CCCNC(=N)N)C(=O)N[C@@H](CCC(=O)O)C(=O)N[C@@H](CCC(N)=O)C(=O)N[C@@H](C)C(=O)N[C@@H](CCC(=O)O)C(=O)N[C@H](C(=O)N[C@@H](CC(N)=O)C(=O)NC(C)(C)C(=O)N[C@@H](CCC(N)=O)C(=O)N[C@H](C(=O)N[C@@H](CC(C)C)C(=O)N[C@@H](C)C(=O)N[C@@H](CCC(N)=O)C(=O)N[C@H](C(N)=O)C(C)C)[C@@H](C)CC)[C@@H](C)O)[C@@H](C)CC)[C@@H](C)CC)C(C)C)C(C)C` [Cmpd 163] (Ac-IVLSLD[dV]PIALK([γGlu-C16 diacid])KILLEQEKQKKQREQAETN[Aib]QILAQV-NH2), the EC50 is greater than 100 µM.

For `CC[C@H](C)[C@H](NC(C)=O)C(=O)N[C@H](C(=O)N[C@@H](CC(C)C)C(=O)N[C@@H](CO)C(=O)N[C@@H](CC(C)C)C(=O)N[C@@H](CC(=O)O)C(=O)N[C@@H](C(=O)N1CCC[C@H]1C(=O)N[C@H](C(=O)N[C@@H](CCCCN)C(=O)N[C@@H](CC(C)C)C(=O)N[C@@H](CCCCNC(=O)CC[C@H](NC(=O)CCCCCCCCCCCCCCC(=O)O)C(=O)O)C(=O)N[C@@H](CCCCN)C(=O)N[C@H](C(=O)N[C@@H](CC(C)C)C(=O)N[C@@H](CC(C)C)C(=O)N[C@@H](CCC(=O)O)C(=O)N[C@@H](CCC(N)=O)C(=O)N[C@@H](CCC(=O)O)C(=O)N[C@@H](C)C(=O)N[C@@H](CCC(N)=O)C(=O)N[C@@H](CCCCN)C(=O)N[C@@H](CCCCN)C(=O)N[C@@H](CCC(N)=O)C(=O)N[C@@H](CCCNC(=N)N)C(=O)N[C@@H](CCC(=O)O)C(=O)N[C@@H](CCC(N)=O)C(=O)N[C@@H](C)C(=O)N[C@@H](CCC(=O)O)C(=O)N[C@H](C(=O)N[C@@H](CC(N)=O)C(=O)NC(C)(C)C(=O)N[C@@H](CCC(N)=O)C(=O)N[C@H](C(=O)N[C@@H](CC(C)C)C(=O)N[C@@H](C)C(=O)N[C@@H](CCC(N)=O)C(=O)N[C@H](C(N)=O)C(C)C)[C@@H](C)CC)[C@@H](C)O)[C@@H](C)CC)[C@@H](C)CC)C(C)C)C(C)C` [Cmpd 165] (Ac-IVLSLD[dV]PIKLK([γGlu-C16 diacid])KILLEQEAQKKQREQAETN[Aib]QILAQV-NH2), the EC50 is greater than 100 µM.

Take `CC[C@H](C)[C@H](NC(C)=O)C(=O)N[C@H](C(=O)N[C@@H](CC(C)C)C(=O)N[C@@H](CO)C(=O)N[C@@H](CC(C)C)C(=O)N[C@@H](CC(=O)O)C(=O)N[C@@H](C(=O)N1CCC[C@H]1C(=O)N[C@H](C(=O)N[C@@H](CCCCN)C(=O)N[C@@H](CC(C)C)C(=O)N[C@@H](CCCCNC(=O)CC[C@H](NC(=O)CCCCCCCCCCCCCCC(=O)O)C(=O)O)C(=O)N[C@@H](CCCCN)C(=O)N[C@H](C(=O)N[C@@H](CC(C)C)C(=O)N[C@@H](CC(C)C)C(=O)N[C@@H](CCC(=O)O)C(=O)N[C@@H](CCC(N)=O)C(=O)N[C@@H](CCC(=O)O)C(=O)N[C@@H](CCCCN)C(=O)N[C@@H](CCC(N)=O)C(=O)N[C@@H](C)C(=O)N[C@@H](CCCCN)C(=O)N[C@@H](CCC(N)=O)C(=O)N[C@@H](CCCNC(=N)N)C(=O)N[C@@H](CCC(=O)O)C(=O)N[C@@H](CCC(N)=O)C(=O)N[C@@H](C)C(=O)N[C@@H](CCC(=O)O)C(=O)N[C@H](C(=O)N[C@@H](CC(N)=O)C(=O)NC(C)(C)C(=O)N[C@@H](CCC(N)=O)C(=O)N[C@H](C(=O)N[C@@H](CC(C)C)C(=O)N[C@@H](C)C(=O)N[C@@H](CCC(N)=O)C(=O)N[C@H](C(N)=O)C(C)C)[C@@H](C)CC)[C@@H](C)O)[C@@H](C)CC)[C@@H](C)CC)C(C)C)C(C)C` [Cmpd 166] (Ac-IVLSLD[dV]PIKLK([γGlu-C16 diacid])KILLEQEKQAKQREQAETN[Aib]QILAQV-NH2): the EC50 is greater than 100 µM.

`CC[C@H](C)[C@H](NC(C)=O)C(=O)N[C@H](C(=O)N[C@@H](CC(C)C)C(=O)N[C@@H](CO)C(=O)N[C@@H](CC(C)C)C(=O)N[C@@H](CC(=O)O)C(=O)N[C@@H](C(=O)N1CCC[C@H]1C(=O)N[C@H](C(=O)N[C@@H](CCCCN)C(=O)N[C@@H](CC(C)C)C(=O)N[C@@H](CCCCNC(=O)CC[C@H](NC(=O)CCCCCCCCCCCCCCC(=O)O)C(=O)O)C(=O)N[C@@H](CCCCN)C(=O)N[C@H](C(=O)N[C@@H](CC(C)C)C(=O)N[C@@H](CC(C)C)C(=O)N[C@@H](CCC(=O)O)C(=O)N[C@@H](CCC(N)=O)C(=O)N[C@@H](CCC(=O)O)C(=O)N[C@@H](CCCCN)C(=O)N[C@@H](CCC(N)=O)C(=O)N[C@@H](CCCCN)C(=O)N[C@@H](CCCCN)C(=O)N[C@@H](CCC(N)=O)C(=O)N[C@@H](C)C(=O)N[C@@H](CCC(=O)O)C(=O)N[C@@H](CCC(N)=O)C(=O)N[C@@H](C)C(=O)N[C@@H](CCC(=O)O)C(=O)N[C@H](C(=O)N[C@@H](CC(N)=O)C(=O)NC(C)(C)C(=O)N[C@@H](CCC(N)=O)C(=O)N[C@H](C(=O)N[C@@H](CC(C)C)C(=O)N[C@@H](C)C(=O)N[C@@H](CCC(N)=O)C(=O)N[C@H](C(N)=O)C(C)C)[C@@H](C)CC)[C@@H](C)O)[C@@H](C)CC)[C@@H](C)CC)C(C)C)C(C)C` [Cmpd 167] (Ac-IVLSLD[dV]PIKLK([γGlu-C16 diacid])KILLEQEKQKKQAEQAETN[Aib]QILAQV-NH2) returned an EC50 greater than 50 µM.
